Results reported in ChEMBL document CHEMBL4033735, “A potent and selective natriuretic peptide receptor-3 blocker 11-mer peptide created by hybridization of musclin and atrial natriuretic peptide” (Bioorg Med Chem Lett, 2017).
The source made the active and inactive calls. No cut-off for these calls is given here. Bridge positions count the residues as written; N and C are the ends. Square brackets hold non-standard residues; d marks the D form. Peptide text beside a SMILES is read from it. Cha = N[C@@H](CC1CCCCC1)C(=O)O

What was measured:
[1] = molecular target: T1, Atrial natriuretic peptide receptor 1 (Homo sapiens, UniProt P16066); assay: Displacement of [125I]-human ANP from human NPR-1 incubated for 2 hrs by top count method
T1 sequence (P16066 whole entry): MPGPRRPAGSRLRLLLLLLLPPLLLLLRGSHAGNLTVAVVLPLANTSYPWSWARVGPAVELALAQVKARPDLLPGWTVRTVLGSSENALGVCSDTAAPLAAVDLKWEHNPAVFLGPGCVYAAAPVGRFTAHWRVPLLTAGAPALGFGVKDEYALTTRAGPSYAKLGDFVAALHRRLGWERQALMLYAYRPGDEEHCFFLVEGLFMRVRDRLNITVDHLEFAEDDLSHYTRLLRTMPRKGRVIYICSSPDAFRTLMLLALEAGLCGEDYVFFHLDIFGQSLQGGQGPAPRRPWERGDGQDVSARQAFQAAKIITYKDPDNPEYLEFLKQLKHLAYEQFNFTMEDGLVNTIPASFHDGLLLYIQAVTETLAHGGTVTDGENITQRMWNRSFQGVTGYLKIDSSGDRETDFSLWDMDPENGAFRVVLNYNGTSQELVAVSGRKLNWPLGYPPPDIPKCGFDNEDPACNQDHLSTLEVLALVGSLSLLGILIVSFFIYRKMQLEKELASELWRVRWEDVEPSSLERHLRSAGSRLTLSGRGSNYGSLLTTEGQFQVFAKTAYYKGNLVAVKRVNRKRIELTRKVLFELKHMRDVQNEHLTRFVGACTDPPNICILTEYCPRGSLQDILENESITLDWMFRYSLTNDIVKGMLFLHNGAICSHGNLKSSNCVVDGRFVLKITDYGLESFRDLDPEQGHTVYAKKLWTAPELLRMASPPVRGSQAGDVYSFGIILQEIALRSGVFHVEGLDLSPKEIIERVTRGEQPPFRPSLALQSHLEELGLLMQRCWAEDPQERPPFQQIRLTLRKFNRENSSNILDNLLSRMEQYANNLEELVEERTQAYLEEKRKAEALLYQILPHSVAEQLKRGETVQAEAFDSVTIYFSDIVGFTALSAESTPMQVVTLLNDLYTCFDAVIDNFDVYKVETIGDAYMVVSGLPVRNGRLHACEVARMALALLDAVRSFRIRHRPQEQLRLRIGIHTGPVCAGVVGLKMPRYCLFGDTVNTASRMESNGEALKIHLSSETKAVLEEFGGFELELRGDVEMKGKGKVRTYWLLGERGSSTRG

[2] = molecular target: T2, Atrial natriuretic peptide receptor 3 (Homo sapiens, UniProt P17342); assay: Displacement of [125I]-human ANP from His-tagged and Fc fragment containing human NPR-3 extracellular domain expressed in FreeStyle 293 cells incubated for 2 hrs by top count method; assay type: cell-based
T2 sequence (P17342 whole entry): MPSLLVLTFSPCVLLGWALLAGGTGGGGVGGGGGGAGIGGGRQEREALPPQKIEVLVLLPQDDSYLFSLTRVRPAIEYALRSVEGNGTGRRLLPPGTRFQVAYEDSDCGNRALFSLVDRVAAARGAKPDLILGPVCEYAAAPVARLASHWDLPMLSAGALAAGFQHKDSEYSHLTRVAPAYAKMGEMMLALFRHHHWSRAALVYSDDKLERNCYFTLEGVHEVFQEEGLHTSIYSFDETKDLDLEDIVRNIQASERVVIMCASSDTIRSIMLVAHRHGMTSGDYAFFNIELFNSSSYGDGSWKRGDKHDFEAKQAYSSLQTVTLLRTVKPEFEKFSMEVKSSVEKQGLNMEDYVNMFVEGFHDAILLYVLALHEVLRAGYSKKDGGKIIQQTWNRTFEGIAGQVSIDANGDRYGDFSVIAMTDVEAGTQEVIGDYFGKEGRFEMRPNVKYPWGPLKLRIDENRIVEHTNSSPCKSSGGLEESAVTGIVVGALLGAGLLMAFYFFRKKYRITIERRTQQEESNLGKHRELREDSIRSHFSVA

[3] = Stability in 10% C57BL/6J mouse serum/phosphate-buffered saline assessed as residual parent compound remaining at 1 mM after 30 mins at 37 degC by HPLC method; assay type: ADME, cell-free; details: 10% mouse serum in phosphate-buffered saline, read-out: Stability
[4] = Stability in 10% C57BL/6J mouse serum/phosphate-buffered saline assessed as residual parent compound remaining at 1 mM after 60 mins at 37 degC by HPLC method; assay type: ADME, cell-free; details: 10% mouse serum in phosphate-buffered saline, read-out: Stability
[5] = Stability in C57BL/6J mouse serum assessed as residual parent compound remaining at 1 mM after 30 mins at 37 degC by HPLC method; assay type: ADME, cell-free; details: read-out: Stability
[6] = Stability in C57BL/6J mouse serum assessed as residual parent compound remaining at 1 mM after 60 mins at 37 degC by HPLC method; assay type: ADME, cell-free; details: read-out: Stability
[7] = Stability in C57BL/6J mouse serum assessed as residual parent compound remaining at 1 mM after 2 hrs at 37 degC by HPLC method; assay type: ADME, cell-free; details: read-out: Stability
[8] = Stability in C57BL/6J mouse serum assessed as residual parent compound remaining at 1 mM after 4 hrs at 37 degC by HPLC method; assay type: ADME, cell-free; details: read-out: Stability
Serum = assay: Stability in C57BL/6J mouse serum at 1 mM up to 4 hrs at 37 degC by HPLC method; assay type: ADME, cell-free; details: 1000 µM
[9] = molecular target: T3, Atrial natriuretic peptide receptor 3 (Mus musculus) (UniProt P70180); assay: Activity at NPR-3 in C57BL/6J mouse primary adipocytes assessed as increase in mANP-stimulated cGMP production at 1 uM pre-incubated for 30 mins before mANP stimulation for 15 mins by enzyme immunoassay; assay type: cell-based
T3 sequence (whole entry): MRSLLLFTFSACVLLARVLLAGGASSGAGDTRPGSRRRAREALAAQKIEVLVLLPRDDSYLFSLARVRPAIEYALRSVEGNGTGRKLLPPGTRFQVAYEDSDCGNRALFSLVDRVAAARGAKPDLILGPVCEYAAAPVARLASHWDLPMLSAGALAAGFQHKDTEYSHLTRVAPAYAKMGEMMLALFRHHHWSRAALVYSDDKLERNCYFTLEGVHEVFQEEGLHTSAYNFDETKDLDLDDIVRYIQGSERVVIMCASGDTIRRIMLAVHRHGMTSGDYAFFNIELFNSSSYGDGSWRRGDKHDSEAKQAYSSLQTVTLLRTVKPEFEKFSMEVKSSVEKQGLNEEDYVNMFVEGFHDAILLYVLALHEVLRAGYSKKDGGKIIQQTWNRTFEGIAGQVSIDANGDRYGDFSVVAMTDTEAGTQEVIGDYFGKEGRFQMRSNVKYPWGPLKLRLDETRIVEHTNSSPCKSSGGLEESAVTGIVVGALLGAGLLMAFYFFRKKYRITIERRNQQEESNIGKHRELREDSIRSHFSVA

[10] = Drug level in mouse blood at 300 nmol/kg/day dosed as continuous administration for 3 days; assay type: ADME, organism-based; details: whole blood, read-out: Drug uptake
[11] = Drug level in mouse blood at 1000 nmol/kg/day dosed as continuous administration for 3 days; assay type: ADME, organism-based; details: whole blood, read-out: Drug uptake
Mus musculus [12] = assay: Increase in cGMP production C57BL/6J mouse blood at 1 umol/kg/day, sc administered via infusion from implanted osmotic pumps for 7 days by enzyme immunoassay; assay type: functional, organism-based
Mus musculus [13] = assay: Increase in cGMP production C57BL/6J mouse blood at 1 umol/kg/day, sc administered via infusion from implanted osmotic pumps for 7 days and co-dosed with 1 umol/kg/day mANP by enzyme immunoassay; assay type: functional, organism-based

CC[C@H](C)[C@H](NC(=O)[C@H](CCCNC(=N)N)NC(=O)[C@H](CC(=O)O)NC(=O)[C@@H](NC(=O)[C@H](CCCNC(=N)N)NC(=O)CNC(=O)CNC(=O)[C@H](CC1CCCCC1)NC(=O)CNC(=O)[C@H](CO)NC(=O)[C@H](Cc1ccccc1)NC(=O)[C@H](CO)NC(=O)[C@@H](N)CCCNC(=N)N)[C@@H](C)CC)C(=O)NCC(N)=O (H-RSFSG[Cha]GGRIDRIG-NH2)
IC50 [1]: > 1000 nM | IC50 [2]: 0.3 nM | remaining at 0.5 h, 1000 µM [3]: 5% | remaining at 1 h, 1000 µM [4]: 0%

CC[C@H](C)[C@H](NC(=O)[C@H](CCCNC(=N)N)NC(=O)[C@H](CC(=O)O)NC(=O)[C@@H](NC(=O)[C@H](CCCNC(=N)N)NC(=O)CNC(=O)CNC(=O)[C@H](CC1CCCCC1)NC(=O)CNC(=O)[C@H](CO)NC(=O)[C@@H](N)Cc1ccccc1)[C@@H](C)CC)C(=O)NCC(N)=O
IC50 [1]: > 1000 nM | IC50 [2]: 1.2 nM | remaining at 0.5 h, 1000 µM [3]: 1.4% | remaining at 1 h, 1000 µM [4]: 0%

CC[C@H](C)[C@H](NC(=O)[C@H](CCCNC(=N)N)NC(=O)[C@H](CC(=O)O)NC(=O)[C@@H](NC(=O)[C@@H]1CCCN1C(=O)CNC(=O)[C@@H](C)NC(=O)[C@H](CC1CCCCC1)NC(=O)[C@H]1CCCN1C(=O)[C@H](CO)NC(=O)[C@@H](Cc1ccccc1)NC(C)=O)[C@@H](C)CC)C(=O)NC
IC50 [1]: > 1000 nM | IC50 [2]: 0.087 nM | remaining at 0.5 h, 1000 µM [5]: 86% | remaining at 1 h, 1000 µM [6]: 74%

CC[C@H](C)[C@H](NC(=O)[C@H](CCCNC(=N)N)NC(=O)[C@H](CC(=O)O)NC(=O)[C@@H](NC(=O)[C@H](CCCNC(=N)N)NC(=O)CNC(=O)CNC(=O)[C@H](CC1CCCCC1)NC(=O)CNC(=O)[C@H](CO)NC(=O)[C@H](N)Cc1ccccc1)[C@@H](C)CC)C(=O)NCC(N)=O
IC50 [1]: > 1000 nM | IC50 [2]: 0.12 nM | remaining at 0.5 h, 1000 µM [3]: 100% | remaining at 1 h, 1000 µM [4]: 80%

CC[C@H](C)[C@H](NC(=O)[C@H](CCCNC(=N)NC)NC(=O)[C@H](CC(=O)O)NC(=O)[C@@H](NC(=O)[C@@H]1C[C@@H](O)CN1C(=O)CNC(=O)[C@@H](C)NC(=O)[C@H](CC1CCCCC1)NC(=O)[C@H]1C[C@H](O)CN1C(=O)[C@H](CO)NC(=O)[C@@H](Cc1ccccc1)NC(C)=O)[C@@H](C)CC)C(=O)NC
IC50 [1]: > 1000 nM | IC50 [2]: 0.099 nM | remaining at 2 h, 1000 µM [7]: 100% | remaining at 4 h, 1000 µM [8]: 102% | Stability (Serum): Stable

CC[C@H](C)[C@@H]1NC(=O)[C@H](CCCNC(=N)N)NC(=O)[C@H](CC(=O)O)NC(=O)[C@H]([C@@H](C)CC)NC(=O)[C@H](CCCNC(=N)N)NC(=O)CNC(=O)CNC(=O)[C@H](Cc2ccccc2)NC(=O)[C@@H](NC(=O)[C@H](CO)NC(=O)[C@H](CO)NC(=O)[C@@H](N)CCCNC(=N)N)CSSC[C@@H](C(=O)O)NC(=O)[C@H](C)NC(=O)CNC1=O (H-RSSCFGGRIDRIGAC-OH; disulfide 4-15)
IC50 [1]: > 1000 nM | IC50 [2]: 0.51 nM | remaining at 0.5 h, 1000 µM [3]: 4% | remaining at 1 h, 1000 µM [4]: 2%

CC[C@H](C)[C@H](NC(=O)[C@H](CCCNC(=N)NC)NC(=O)[C@H](CC(=O)O)NC(=O)[C@@H](NC(=O)[C@@H]1C[C@@H](O)CN1C(=O)CNC(=O)[C@@H](CO)NC(=O)[C@H](CC1CCCCC1)NC(=O)[C@H]1C[C@H](O)CN1C(=O)[C@H](CO)NC(=O)[C@@H](Cc1ccccc1)NC(=O)CO)[C@@H](C)CC)C(=O)NC
Activity [9]: Active | IC50 [1]: > 1000 nM | IC50 [2]: 0.079 nM | remaining at 2 h, 1000 µM [7]: 107% | remaining at 4 h, 1000 µM [8]: 92% | concentration at 72 h [10]: 10.1 nM | concentration at 72 h [11]: 40.5 nM | Activity (Mus musculus [12]): Active | Activity (Mus musculus [13]): Active

CC[C@H](C)[C@H](NC(=O)[C@H](CCCNC(=N)N)NC(=O)[C@H](CC(=O)O)NC(=O)[C@@H](NC(=O)[C@@H]1CCCN1C(=O)CNC(=O)[C@@H](C)NC(=O)[C@H](CC1CCCCC1)NC(=O)[C@H]1CCCN1C(=O)[C@H](CO)NC(=O)[C@@H](Cc1ccccc1)NC(C)=O)[C@@H](C)CC)C(N)=O
IC50 [1]: > 1000 nM | IC50 [2]: 0.054 nM | remaining at 0.5 h, 1000 µM [5]: 81% | remaining at 1 h, 1000 µM [6]: 68%

CC[C@H](C)[C@H](NC(=O)[C@H](CCCNC(=N)N)NC(=O)[C@H](CC(=O)O)NC(=O)[C@@H](NC(=O)[C@H](CCCNC(=N)N)NC(=O)CNC(=O)CNC(=O)[C@H](CC1CCCCC1)NC(=O)[C@H]1CCCN1C(=O)[C@H](CO)NC(=O)[C@H](N)Cc1ccccc1)[C@@H](C)CC)C(=O)NCC(N)=O
IC50 [1]: > 1000 nM | IC50 [2]: 0.13 nM | remaining at 0.5 h, 1000 µM [3]: 80% | remaining at 1 h, 1000 µM [4]: 63%

CC[C@H](C)[C@H](NC(=O)[C@H](CCCNC(=N)NC)NC(=O)[C@H](CC(=O)O)NC(=O)[C@@H](NC(=O)[C@@H]1CCCN1C(=O)CNC(=O)[C@@H](C)NC(=O)[C@H](CC1CCCCC1)NC(=O)[C@H]1CCCN1C(=O)[C@H](CO)NC(=O)[C@@H](Cc1ccccc1)NC(C)=O)[C@@H](C)CC)C(=O)NC
IC50 [1]: > 1000 nM | IC50 [2]: 0.14 nM | remaining at 0.5 h, 1000 µM [5]: 91% | remaining at 1 h, 1000 µM [6]: 84% | remaining at 2 h, 1000 µM [7]: 77% | remaining at 4 h, 1000 µM [8]: 62% | concentration at 72 h [11]: 13.7 nM
